assay: Log of liquid dish neat product liquid-air partition coefficient; assay type: physicochemical; details: not given

| Compound | Comment Code: Log of liquid dish neat product liquid-air partition coefficient |
| --- | --- |
| CC(C)C1OCCC2(CC3CCC2(C)C3(C)C)O1 (stereo not shown) [Material 659] | K (Log of liquid dish neat product liquid-air partition coefficient greater than or equal to 7) |
| C=CCCC(=O)C1=CCCC2(CCCC2)C1 [Material 1038] | K (Log of liquid dish neat product liquid-air partition coefficient greater than or equal to 7) |
| C/C=C/c1ccc(O)c(OC)c1 [Material 1084] | K (Log of liquid dish neat product liquid-air partition coefficient greater than or equal to 7) |
| CC(=O)CCC1C(C)=CCCC1(C)C (stereo not shown) [Material 448] | K (Log of liquid dish neat product liquid-air partition coefficient greater than or equal to 7) |
| CC(=O)OC(C)(C)C1CC=C(C)CC1 (stereo not shown) [Material 687] | K (Log of liquid dish neat product liquid-air partition coefficient greater than or equal to 7) |
| CC(O)CCC1C(C)CCCC1(C)C (stereo not shown) [Material 1052] | K (Log of liquid dish neat product liquid-air partition coefficient greater than or equal to 7) |
| C[C@@H]1CC[C@H]2C(C)(C)[C@H]3C[C@@]12CC1OC(C)(C)OC13C (stereo partly shown) [Material 674] | K (Log of liquid dish neat product liquid-air partition coefficient greater than or equal to 7) |
| CC1CCCCCCCCCCCCC(=O)C1 (stereo not shown) [Material 206] | K (Log of liquid dish neat product liquid-air partition coefficient greater than or equal to 7) |
| C=CC(C)(CCC=C(C)C)OC=O (stereo not shown) [Material 150] | K (Log of liquid dish neat product liquid-air partition coefficient greater than or equal to 7) |
| Cc1n[nH]cc1-c1ccccc1 [Material 808] | K (Log of liquid dish neat product liquid-air partition coefficient greater than or equal to 7) |
| CC1(C)CCc2ccc(CCC=O)cc21 [Material 260] | K (Log of liquid dish neat product liquid-air partition coefficient greater than or equal to 7) |
| CC1=CC(C)C2(CCCC(C)(C)C2=O)CC1 (stereo not shown) [Material 1022] | K (Log of liquid dish neat product liquid-air partition coefficient greater than or equal to 7) |
| COc1cc(C)ccc1O [Material 492] | K (Log of liquid dish neat product liquid-air partition coefficient greater than or equal to 7) |
| C=CC(C)(CCC=C(C)C)OC(=O)CCC (stereo not shown) [Material 151] | K (Log of liquid dish neat product liquid-air partition coefficient greater than or equal to 7) |
| CC1(C)C2CCC3(C2)C1C1(CCC3(C)C)OCCO1 (stereo not shown) [Material 1145] | K (Log of liquid dish neat product liquid-air partition coefficient greater than or equal to 7) |
| CCC(C)c1nccnc1OC (stereo not shown) [Material 845] | K (Log of liquid dish neat product liquid-air partition coefficient greater than or equal to 7) |
| CCCc1ccc(O)c(OC)c1 [Material 440] | K (Log of liquid dish neat product liquid-air partition coefficient greater than or equal to 7) |
| CCC(=O)OCCc1ccccc1 [Material 835] | K (Log of liquid dish neat product liquid-air partition coefficient greater than or equal to 7) |

same assay, conditions: Comment Code letters K and/or L

| Compound | Log of liquid dish neat product liquid-air partition coefficient (Comment Code K/L) |
| --- | --- |
| CC1(C)C2CCC3(C2)C1C1(CCC3(C)C)OCCO1 (stereo not shown) [Material 1145] | K (Log of liquid dish neat product liquid-air partition coefficient greater than or equal to 7) |

same assay, conditions: code letter within the Comment Code cell

| Compound | Log of liquid dish neat product liquid-air partition coefficient (Comment Code K/L) |
| --- | --- |
| C=C1CCCC(C)(C)C1C(=O)C=CC (stereo not shown) [Material 331] | K (Log of liquid dish neat product liquid-air partition coefficient greater than or equal to 7) |
| CCCCCCCCC1CCC(=O)O1 (stereo not shown) [Material 330] | K (Log of liquid dish neat product liquid-air partition coefficient greater than or equal to 7) |
| OCC=Cc1ccccc1 [Material 555] | K (Log of liquid dish neat product liquid-air partition coefficient greater than or equal to 7) |
| COC(C)(C)CCCC(C)CC=O (stereo not shown) [Material 126] | K (Log of liquid dish neat product liquid-air partition coefficient greater than or equal to 7) |
| CCOC(=O)C12CCCC1C1CCC2C1 (stereo not shown) [Material 344] | K (Log of liquid dish neat product liquid-air partition coefficient greater than or equal to 7) |
| CCOC(=O)C1C2C=CC(C2)C1C(C)C (stereo not shown) [Material 280] | K (Log of liquid dish neat product liquid-air partition coefficient greater than or equal to 7) |
| CC1OCC(c2ccccc2)O1 (stereo not shown) [Material 190] | K (Log of liquid dish neat product liquid-air partition coefficient greater than or equal to 7) |
| CCCCCCCCCCCCOC(C)=O [Material 175] | K (Log of liquid dish neat product liquid-air partition coefficient greater than or equal to 7) |
| C=CCc1ccc(OC)cc1 [Material 119] | K (Log of liquid dish neat product liquid-air partition coefficient greater than or equal to 7) |
| CC1CCCCCCCCCCCCC(=O)C1 (stereo not shown) [Material 206] | K (Log of liquid dish neat product liquid-air partition coefficient greater than or equal to 7) |
| c1ccc2occc2c1 [Material 493] | K (Log of liquid dish neat product liquid-air partition coefficient greater than or equal to 7) |
| CC(C)=CCCC(C)=CCC1CCCC1=O (racemic) [Material 307] | K (Log of liquid dish neat product liquid-air partition coefficient greater than or equal to 7) |
| CC1=CCC(C=CC(C)C(C)O)C1(C)C (stereo not shown) [Material 416] | K (Log of liquid dish neat product liquid-air partition coefficient greater than or equal to 7) |
| CC1(C)CCc2ccc(CCC=O)cc21 [Material 260] | K (Log of liquid dish neat product liquid-air partition coefficient greater than or equal to 7) |
| O=C1CCC=CCCCCCCCCCC1 [Material 371] | K (Log of liquid dish neat product liquid-air partition coefficient greater than or equal to 7) |
| CC(=O)OCC=Cc1ccccc1 [Material 553] | K (Log of liquid dish neat product liquid-air partition coefficient greater than or equal to 7) |
| CCCCCCCCCCCCCC=O [Material 36] | K (Log of liquid dish neat product liquid-air partition coefficient greater than or equal to 7) |

same assay, conditions: code letters K/L of the Comment Code

| Compound | Log of liquid dish neat product liquid-air partition coefficient (Comment Code) |
| --- | --- |
| CC12CCC(C(=O)C1=O)C2(C)C (stereo not shown) [Material 587] | K (Log of liquid dish neat product liquid-air partition coefficient greater than or equal to 7) |
| CC(C)C1OCCC2(CC3CCC2(C)C3(C)C)O1 (stereo not shown) [Material 659] | K (Log of liquid dish neat product liquid-air partition coefficient greater than or equal to 7) |
| CC1CC(C)(c2ccccc2)CO1 (stereo not shown) [Material 1006] | K (Log of liquid dish neat product liquid-air partition coefficient greater than or equal to 7) |
| C/C(=C/C#N)CCc1ccccc1 [Material 892] | K (Log of liquid dish neat product liquid-air partition coefficient greater than or equal to 7) |
| C=CCCC(=O)C1=CCCC2(CCCC2)C1 [Material 1038] | K (Log of liquid dish neat product liquid-air partition coefficient greater than or equal to 7) |
| CC1CC=CCCCCCCCC(=O)OCC1 (stereo not shown) [Material 1099] | K (Log of liquid dish neat product liquid-air partition coefficient greater than or equal to 7) |
| CC(C)(O)Cc1ccccc1 [Material 649] | K (Log of liquid dish neat product liquid-air partition coefficient greater than or equal to 7) |
| CCCCCCCC/C=C\CC=O [Material 884] | K (Log of liquid dish neat product liquid-air partition coefficient greater than or equal to 7) |
| CC(C)=CCCC(C)CCCC(C)C=O (stereo not shown) [Material 757] | K (Log of liquid dish neat product liquid-air partition coefficient greater than or equal to 7) |
| C[C@@H]1CC[C@H]2C(C)(C)[C@H]3C[C@@]12CC1OC(C)(C)OC13C (stereo partly shown) [Material 674] | K (Log of liquid dish neat product liquid-air partition coefficient greater than or equal to 7) |
| CC(CO)CCCc1ccccc1 (stereo not shown) [Material 1012] | K (Log of liquid dish neat product liquid-air partition coefficient greater than or equal to 7) |
| CC(=CCC1CC=C(C)C1(C)C)CO (stereo not shown) [Material 1025] | K (Log of liquid dish neat product liquid-air partition coefficient greater than or equal to 7) |
| CC1=CC(C)C2(CCCC(C)(C)C2=O)CC1 (stereo not shown) [Material 1022] | K (Log of liquid dish neat product liquid-air partition coefficient greater than or equal to 7) |
| CC(C)=CCCC1=CCC(C)(C=O)CC1 (stereo not shown) [Material 988] | K (Log of liquid dish neat product liquid-air partition coefficient greater than or equal to 7) |
| CC1C(C)(C)C2=C(C(=O)CCC2)C1(C)C (stereo not shown) [Material 572] | K (Log of liquid dish neat product liquid-air partition coefficient greater than or equal to 7) |
| CCCCCCC/C=C\CCC=O [Material 1045] | K (Log of liquid dish neat product liquid-air partition coefficient greater than or equal to 7) |

Reference: patent publication US20170333591A9, “ABSORBENT ARTICLE COMPRISING MALODOR REDUCTION COMPOSITIONS” (The Procter & Gamble Company, priority 2014, published 2017)
